Where a name gives a salt, the structure may show the parent alone. Read-outs that look alike come from different tables or passages of the source.
What was measured:
[1] = mouse, 2000 ng/mL, pH 5.5
Experimental: Aliquot of 100 μL were taken from stability samples in pre-labelled micro-centrifuge tubes. 5 μL of cetirizine working internal standard (5 μg/mL) was added to each tube and vortexed well. 1 mL acetonitrile was added to each tube and vortexed well and then centrifuge at 10000 RPM for 5 min at room temperature. The supernatant was collected in ria vials and evaporated to dryness under nitrogen stream. The samples were reconstituted in 1 mL of 0.1% formic acid in water: acetonitrile 30:70 v/v. The prepared samples were analyzed using LC-MS/MS method. Quantification was done against SN-38 standard, prepared at 2000 ng/mL concentration. SN-38 standard prepared by spiking 5 μL of SN-38 working standard to 95 μL of blank mice tumor homogenate to achieve 2000 ng/mL concentration and vortexed well and processed as described.
LC-MS/MS Method: Chromatographic separation was achieved on Inertsil C8-3 (50×4.6 mm, 5 μ) with a flow rate of 250 μL/min and an injection volume of 10 μL. The sample cooler was maintained at 10° C. The column oven temperature was set to 40° C. The mobile phase consisted of 0.1% formic acid in Milli Q water and acetonitrile in the ratio of 30:70 v/v, respectively. […] The overall chromatographic run time was 4.0 minutes.
Detection was performed by tandem mass spectrometry (TSQ Quantum, Discovery MAX, Thermo Electron Corporation) and peak areas were integrated using LCquan software version 2.9 QF1.
0 hr standard area was considered as 100% for calculation.

[2] = Buffer stability (phosphate buffer, 37° C., HPLC); assay type: physicochemical
Experimental: The representative compounds were first dissolved in a minimum quantity of DMSO in a volumetric flask and diluted up to the mark with diluent (water: acetonitrile 30:70). […] After the elapsed time, the buffer samples were diluted 4 times with acetonitrile and injected into an HPLC system. Quantification of representative compounds was done by HPLC.
HPLC method: Chromatographic separation was achieved on a Hypersil BDS C18 (100×4.6 mm, 5 μ) column using 25 mM KH2PO4 buffer (pH 7 with TEA): acetonitrile, 90:10 v/v as mobile phase-A and 25 mM KH2PO4 buffer (pH 7 with TEA): acetonitrile 30:70 v/v as mobile phase-B. The gradient started with initially 5% B to 45% B in 10 mins followed by 80% B in 22 mins and held up to 25 mins and then returned to initial conditions at 26 mins and continued up to 30 mins. The injection volume was kept 10 μL and the flow rate was kept at 1.0 mL/min. The UV-Vis Detector was set at 220 nm, the column oven was set at 37° C. and the sample cooler was set at […]. Total chromatographic runtime was 30 min.

[3] = test system: MX-1 cells; assay: In-vitro cancer cell growth inhibition assay (MTT); assay type: cell-based; details: Homo sapiens, MX1, 144 h, read-out: IC50 (nM) MX-1
Experimental: (§1) The compounds of the present invention were evaluated for their ability to inhibit the growth of various cell line models of small cell lung cancer (SCLC), colon cancer, pancreatic cancer and triple negative breast cancer (TNBC) in-vitro. Details of the cell lines and their respective complete growth media are described in Table 3. The growth inhibition assay was carried out as described below. Briefly, cells in complete growth media were seeded in 96-well plates at appropriate cell densities (seeding density details described in Table 3) and incubated at 37° C., 5% CO2 (3-4 hours for NCI-H526, NCI-H69, NCI-H187 and overnight for the rest of the cells). Serial dilutions of test compound in DMSO were added to the cells while maintaining the final DMSO concentration of 0.4%-0.5% in the well. Plates were incubated for 96-144 h (the exact duration for each assay is described in Table 3) at 37° C., 5% CO2. Subsequently, MTT (final concentration 0.5 mg/mL in media) was incubated with the cells at 37° C., 5% CO2 for 4-5 hours. The formazan crystals were dissolved overnight at 37° C., 5% CO2 using 100 μL extractant (10% SDS in 0.01N HCl) and quantified using absorbance at 570 nm with reference wavelength 630 nm. Growth inhibition was represented as percent decrease in absorbance compared to vehicle treated cells.

[4] = test system: MDA-MB-231 cells; assay: In-vitro cancer cell growth inhibition assay (MTT); assay type: cell-based; details: Homo sapiens, MDA-MB-231, 96 h, read-out: IC50 (nM) MDA-MB-231
Experimental: as §1

[5] = test system: NCI H69 cells; assay: In-vitro cancer cell growth inhibition assay (MTT); assay type: cell-based; details: Homo sapiens, NCI-H69, 144 h, read-out: IC50 (nM) NCI H69
Experimental: as §1

[6] = test system: PANC-1 cells; assay: In-vitro cancer cell growth inhibition assay (MTT); assay type: cell-based; details: Homo sapiens, PANC-1, 96 h, read-out: IC50 (nM) PANC-1
Experimental: as §1

[7] = test system: HT-29 cells; assay: In-vitro cancer cell growth inhibition assay (MTT); assay type: cell-based; details: Homo sapiens, HT-29, 96 h, read-out: IC50 (nM) HT-29
Experimental: as §1

[8] = test system: MDA-MB-468 cells; assay: In-vitro cancer cell growth inhibition assay (MTT); assay type: cell-based; details: Homo sapiens, MDA-MB-468, 96 h, read-out: IC50 (nM) MDA-MB-468
Experimental: as §1

[9] = test system: NCI H187 cells; assay: In-vitro cancer cell growth inhibition assay (MTT); assay type: cell-based; details: Homo sapiens, NCI-H187, read-out: IC50 (nM) NCI H187
Experimental: as §1, with “Plates were incubated for 96-144 h (the exact duration for each assay is described in Table 3) at 37° C., 5% CO2.” left out

## CCc1c2c(nc3ccc(OC(=O)N4CCC(N5CCCCC5)CC4)cc13)-c1cc3c(c(=O)n1C2)COC(=O)[C@]3(O)CC [Irinotecan, irinotecan hydrochloride]
[1]; 0 h
  % Remaining in tumor lysate: 100.0%
  Concentration of SN-38 formed from the substance: 0 µg/mL
[1]; 1 h
  % Remaining in tumor lysate: 110.5%
[1]; 1 hr
  Concentration of SN-38 formed from the substance: 0.0094 µg/mL
[1]; 2 h
  % Remaining in tumor lysate: 95.4%
[1]; 2 hr
  Concentration of SN-38 formed from the substance: 0.0175 µg/mL
[1]; 4 h
  % Remaining in tumor lysate: 93.1%
[1]; 4 hr
  Concentration of SN-38 formed from the substance: 0.0228 µg/mL
[1]; 6 h
  % Remaining in tumor lysate: 82.3%
[1]; 6 hr
  Concentration of SN-38 formed from the substance: 0.0255 µg/mL
[1]; 8 h
  Concentration of SN-38 formed from the substance: 0.0296 µg/mL

## CCc1c2c(nc3ccc(O)cc13)-c1cc3c(c(=O)n1C2)COC(=O)[C@@]3(CC)OC(=O)CCCSSCCCC(=O)Nc1ccc(N2CCN(C)CC2)cc1.Cl [Compound I.1, 4-[3-(4-(4-Methylpiperazin-1-yl)phenylcarbamoyl)propyldisulfanyl][(4S)-4,11-diethyl-3,4,12,14-tetrahydro-9-hydroxy-1H-pyrano[3′,4′:6,7]indolizino[1,2-b]quinoline-3,14-(4H,12H)dione-4-yl]butyrate hydrochloride]
[2]; pH 4.7, 0 hr, 200 μg/ml
  % of Unconverted Compounds of Formula I: 100%
[2]; pH 4.7, 2 hr, 200 μg/ml
  % of Unconverted Compounds of Formula I: 96.3%
[2]; pH 4.7, 4 hr, 200 μg/ml
  % of Unconverted Compounds of Formula I: 97.4%
[2]; pH 4.7, 6 hr, 200 μg/ml
  % of Unconverted Compounds of Formula I: 100.0%
[2]; pH 4.7, 8 hr, 200 μg/ml
  % of Unconverted Compounds of Formula I: 100%
[2]; pH 6.0, 0 hr, 200 μg/ml
  % of Unconverted Compounds of Formula I: 100%
[2]; pH 6.0, 2 hr, 200 μg/ml
  % of Unconverted Compounds of Formula I: 95.4%
[2]; pH 6.0, 4 hr, 200 μg/ml
  % of Unconverted Compounds of Formula I: 97.1%
[2]; pH 6.0, 6 hr, 200 μg/ml
  % of Unconverted Compounds of Formula I: 97.2%
[2]; pH 6.0, 8 hr, 200 μg/ml
  % of Unconverted Compounds of Formula I: 97.1%
[2]; pH 7.4, 0 hr, 200 μg/ml
  % of Unconverted Compounds of Formula I: 100%
[2]; pH 7.4, 2 hr, 200 μg/ml
  % of Unconverted Compounds of Formula I: 97.7%
[2]; pH 7.4, 4 hr, 200 μg/ml
  % of Unconverted Compounds of Formula I: 95.5%
[2]; pH 7.4, 6 hr, 200 μg/ml
  % of Unconverted Compounds of Formula I: 100.0%
[2]; pH 7.4, 8 hr, 200 μg/ml
  % of Unconverted Compounds of Formula I: 100%

## CCc1c2c(nc3ccc(O)cc13)-c1cc3c(c(=O)n1C2)COC(=O)[C@@]3(CC)OC(=O)OCCSSCCNC(=O)c1ccc(CN2CCN(C)CC2)cc1 [Compound I.6, 2-(2-{4-[4-Methylpiperazin-1-ylmethyl]benzoylamino}ethyldisulfanyl)ethyl [(4S)-4,11-diethyl-3,4,12,14-tetrahydro-9-hydroxy-1H-pyrano[3′,4′:6,7]indolizino[1,2-b]quinoline-3,14-(4H,12H)dione-4-yl] carbonate dihydrochloride]
[2]; pH 4.7, 0 hr, 100 μg/ml (footnote *)
  % of Unconverted Compounds of Formula I: 100%
[2]; pH 4.7, 2 hr, 100 μg/ml (footnote *)
  % of Unconverted Compounds of Formula I: 96.8%
[2]; pH 4.7, 4 hr, 100 μg/ml (footnote *)
  % of Unconverted Compounds of Formula I: 89.8%
[2]; pH 4.7, 8 hr, 100 μg/ml (footnote *)
  % of Unconverted Compounds of Formula I: 89.0%
[2]; pH 6.0, 0 hr, 100 μg/ml (footnote *)
  % of Unconverted Compounds of Formula I: 100%
[2]; pH 6.0, 2 hr, 100 μg/ml (footnote *)
  % of Unconverted Compounds of Formula I: 89.9%
[2]; pH 6.0, 4 hr, 100 μg/ml (footnote *)
  % of Unconverted Compounds of Formula I: 89.4%
[2]; pH 6.0, 6 hr, 100 μg/ml (footnote *)
  % of Unconverted Compounds of Formula I: 82.5%
[2]; pH 6.0, 8 hr, 100 μg/ml (footnote *)
  % of Unconverted Compounds of Formula I: 84.3%
[2]; pH 7.4, 0 hr, 100 μg/ml (footnote *)
  % of Unconverted Compounds of Formula I: 100%
[2]; pH 7.4, 2 hr, 100 μg/ml (footnote *)
  % of Unconverted Compounds of Formula I: 90.7%
[2]; pH 7.4, 4 hr, 100 μg/ml (footnote *)
  % of Unconverted Compounds of Formula I: 81.4%
[2]; pH 7.4, 6 hr, 100 μg/ml (footnote *)
  % of Unconverted Compounds of Formula I: 83.7%
[2]; pH 7.4, 8 hr, 100 μg/ml (footnote *)
  % of Unconverted Compounds of Formula I: 84.6%
[3]
  IC50: 5.4 nM
[4]
  IC50: 158 nM
[5]
  IC50: 2.3 nM
[6]
  IC50: 1140 nM
[7]
  IC50: 15.7 nM
[8]
  IC50: 13.7 nM
[9]
  IC50: 0.23 nM
